In patent US11180504B2 (ORCHID PHARMA LTD., priority 2016, dated 2021):
Values after ≈ are worked out from the molar mass of the structure shown.

What was measured:
[1] = test system: methicillin-sensitive Staphylococcus aureus; experiment: MIC by broth micro-dilution (CLSI), methicillin-sensitive S. aureus; type: cell-based; conditions: Staphylococcus aureus, ATCC 29213 / MSSA, MSSA S. aureus ATCC29213; read-out: MIC
[2] = test system: carbapenem sensitive Escherichia coli; experiment: MIC by broth micro-dilution (CLSI), carbapenem sensitive E. coli; type: cell-based; conditions: Escherichia coli, ATCC25922, ESBL −ve E. coli ATCC25922; read-out: MIC
[3] = test system: carbapenemase producing K. pneumoniae; experiment: MIC by broth micro-dilution (CLSI), carbapenemase producing K. pneumoniae; type: cell-based, Klebsiella pneumoniae; conditions: Klebsiella pneumoniae, ATCCBAA1705, KPC-2 K. pneumoniae ATCC BAA-1705; read-out: MIC
[4] = test system: carbapenem sensitive Pseudomonas aeruginosa; experiment: MIC by broth micro-dilution (CLSI), carbapenem sensitive P. aeruginosa; type: cell-based; conditions: Pseudomonas aeruginosa, ATCC27853, Meropenem susceptible P. aeruginosa ATCC27853; read-out: MIC

Question: Which MIC [1] does the source give for C[C@@H](NC(=O)Cn1cnnn1)[C@H]1C(=O)N2C(C(=O)O)=C(S[C@@H]3CN[C@H](C(=O)N4CCO[C@H]5CNC[C@H]54)C3)[C@H](C)[C@H]12 [Example 471, (4R,5S,6R)-6-((R)-1-(2-(1H-tetrazol-1-yl)acetamido)ethyl)-4-methyl-3-((3S,5S)-5-((4aR,7aS)-octahydropyrrolo[3,4-b][1,4]oxazine-4-carbonyl)pyrrolidin-3-ylthio)-7-oxo-1-azabicyclo[3.2.0]hept-2-ene-2-carboxylic acid] here?
Answer: 2 µg/mL (≈ 3.47 µM)

Question: And the MIC [2]?
Answer: 0.5 µg/mL (≈ 0.869 µM)

Question: What about the MIC [3] of the same compound?
Answer: 2 µg/mL (≈ 3.47 µM)

Question: And the MIC [4]?
Answer: 4 µg/mL (≈ 6.95 µM)

Question: C[C@@H](NC(=O)Cn1cnnn1)[C@H]1C(=O)N2C(C(=O)O)=C(S[C@@H]3CN[C@H](C(=O)N4CC[C@@H](CN)C4)C3)[C@H](C)[C@H]12 [Example 472, (4R,5S,6R)-6-((R)-1-(2-(1H-tetrazol-1-yl)acetamido)ethyl)-3-((3S,5S)-5-((S)-3-(aminomethyl)pyrrolidine-1-carbonyl)pyrrolidin-3-ylthio)-4-methyl-7-oxo-1-azabicyclo[3.2.0]hept-2-ene-2-carboxylic acid] was tested. Which MIC [1] did it give?
Answer: 4 µg/mL (≈ 7.3 µM)

Question: What about the MIC [2] of the same compound?
Answer: 0.5 µg/mL (≈ 0.913 µM)

Question: What about the MIC [3] of the same compound?
Answer: 2 µg/mL (≈ 3.65 µM)

Question: What about the MIC [4] of the same compound?
Answer: 2 µg/mL (≈ 3.65 µM)

Question: C[C@@H](NC(=O)Cn1cnnn1)[C@H]1C(=O)N2C(C(=O)O)=C(S[C@@H]3CN[C@H](C(=O)N4C[C@H](N)C[C@@H]4CN)C3)[C@H](C)[C@H]12 [Example 473, (4R,5S,6R)-6-((R)-1-(2-(1H-tetrazol-1-yl)acetamido)ethyl)-3-((3S,5S)-5-((2R,4R)-4-amino-2-(aminomethyl)pyrrolidine-1-carbonyl)pyrrolidin-3-ylthio)-4-methyl-7-oxo-1-azabicyclo[3.2.0]hept-2-ene-2-carboxylic acid] was tested. Which MIC [1] did it give?
Answer: 4 µg/mL (≈ 7.11 µM)

Question: And the MIC [2]?
Answer: 0.5 µg/mL (≈ 0.889 µM)

Question: And the MIC [3]?
Answer: 2 µg/mL (≈ 3.55 µM)

Question: And the MIC [4]?
Answer: 4 µg/mL (≈ 7.11 µM)

Question: What does the source list for C[C@@H](NC(=O)Cn1cnnn1)[C@H]1C(=O)N2C(C(=O)O)=C(S[C@@H]3CN[C@H](C(=O)N4C[C@H](N)C[C@@H]4CO)C3)[C@H](C)[C@H]12 [Example 474, (4R,5S,6R)-6-((R)-1-(2-(1H-tetrazol-1-yl)acetamido)ethyl)-3-((3S,5S)-5-((2R,4R)-4-amino-2-(hydroxymethyl)pyrrolidine-1-carbonyl)pyrrolidin-3-ylthio)-4-methyl-7-oxo-1-azabicyclo[3.2.0]hept-2-ene-2-carboxylic acid]?
Answer: MIC [1]: 4 µg/mL (≈ 7.1 µM); MIC [2]: 0.25 µg/mL (≈ 0.444 µM); MIC [3]: 2 µg/mL (≈ 3.55 µM); MIC [4]: 2 µg/mL (≈ 3.55 µM)

Question: Which MIC [1] does the source give for C[C@@H](NC(=O)Cn1cnnn1)[C@H]1C(=O)N2C(C(=O)O)=C(S[C@@H]3CN[C@H](C(=O)N4CCC(N)(CO)CC4)C3)[C@H](C)[C@H]12 [Example 475, (4R,5S,6R)-6-((R)-1-(2-(1H-tetrazol-1-yl)acetamido)ethyl)-3-((3S,5S)-5-(4-amino-4-(hydroxymethyl)piperidine-1-carbonyl)pyrrolidin-3-ylthio)-4-methyl-7-oxo-1-azabicyclo[3.2.0]hept-2-ene-2-carboxylic acid] here?
Answer: 4 µg/mL (≈ 6.92 µM)

Question: And the MIC [2]?
Answer: 0.5 µg/mL (≈ 0.866 µM)

Question: And the MIC [3]?
Answer: 2 µg/mL (≈ 3.46 µM)

Question: And the MIC [4]?
Answer: 2 µg/mL (≈ 3.46 µM)

Question: How did the MIC [1] turn out when C[C@@H](NC(=O)Cn1cnnn1)[C@H]1C(=O)N2C(C(=O)O)=C(S[C@@H]3CN[C@H](C(=O)N4CCCCC45CCNCC5)C3)[C@H](C)[C@H]12 [Example 476, (4R,5S,6R)-3-((3S,5S)-5-(1,9-diazaspiro[5.5]undecane1-carbonyl)pyrrolidin-3-ylthio)-6-((R)-1-(2-(1H-tetrazol-1-yl)acetamido)ethyl)-4-methyl-7-oxo-1-azabicyclo[3.2.0]hept-2-ene-2-carboxylic acid] was run?
Answer: 2 µg/mL (≈ 3.32 µM)

Question: What about the MIC [2] of the same compound?
Answer: 1 µg/mL (≈ 1.66 µM)

Question: What about the MIC [3] of the same compound?
Answer: 2 µg/mL (≈ 3.32 µM)

Question: And the MIC [4]?
Answer: 32 µg/mL (≈ 53.2 µM)
